We go through 5 molecules from patent publication US3994910A, “Derivatives of 1,2-diphenyl-3,5-dioxo-4-N-butyl-pyrazolidine and process for making same” (Antonia Gallardo, S.A., priority 1973, dated 1976).

One series can be described thus: in vivo. The note with it: rat, po.
In series [1] the test system is rat stomach. The note with it: in vivo.
Series [2] deals with rat stomach. Briefly: Ulcerogenic activity on the stomach. The note with it: compared with phenylbutazone.
Series [3] has as its system humans with reumatic diseases. In words: Treatment of humans with reumatic diseases / polyarthritics. It counts as in vivo, human. From the text:
In general, the new therapeutic compounds can be used to treat the same disorders as phenylbutazone. […] These therapeutic compounds have been found effective in treating humans as well as animals.

Series [4] concerns granuloma induced in rats by implantation of cotton balls. Briefly: Granuloma induced in rats by implantation of cotton balls. Format: in vivo, rat. The note with it: for Dry granuloma ± standard error: net weight, (mg) printed in adjoining wet weight head; for Weight of wet granuloma: net weight ± standard error. From the text: The figures refer to the net weight of granuloma tissue obtained by subtracting the original weight of the cotton ball.

Series [5] relates to contortions induced by acetic acid in mice. In words: Inhibition of contortions induced by acetic acid injected into the abdominal cavity of the mouse. Format: in vivo.
The subject of series [6] is carrageenin-induced oedema in the rat's paw. Briefly: Inhibition of carrageenin-induced oedema in rat's paw. The note with it: for % Inhibition ± standard error (paw oedema): 3 hours after carrageenin; for Volume of paw (ml) ± standard error: measured 3 hours after carrageenin.
The conditions of series [7]: background knowledge; cited from earlier work.
[8] abbreviates: high doses (200 mg/kg), both products compared.
Where [9] appears, read: lower dose levels (100 and 50 mg/kg).
Where [10] appears, read: 30 mg/kg per os 1 h before acetic acid injection.
Where [11] appears, read: 100 mg/kg per os 1 h before acetic acid injection.
The mark [12] stands for this setting: 300 mg/kg per os 1 h before acetic acid injection.
[13] abbreviates: 25 mg/kg per os 1 h before carrageenin.
Setting [14] is: 50 mg/kg per os 1 h before carrageenin.
The mark [15] stands for this setting: 100 mg/kg per os 1 h before carrageenin.
Where [16] appears, read: 200 mg/kg per os 1 h before carrageenin.

“Also recorded” adds a separate entry of the source. Where a name gives a salt, the structure may show the parent alone. Read-outs that look alike come from different tables or passages of the source.

Usually LD50 stands for the dose expected to kill half of the subjects tested. As usually defined, the mortality is the percentage killed. High values mean a strong lethal effect, low ones a weak lethal effect. Turning to `NC1=NCCS1` [2-amino-thiazoline, 2-amino-2-thiazoline], the No. deaths amounted to 2 in the series with rat (316 mg/kg per os); 4 in the series on rat (383 mg/kg per os); 6 in the series on rat (464 mg/kg per os); 7 in the series on rat (562 mg/kg per os); 9 in the series on rat (681 mg/kg per os); 9 in the series on rat (825 mg/kg per os). In addition, in the series “in vivo”, the LD50 is 430 mg/kg. Also, the mortality in “in vivo” (316 mg/kg) turned out to be 20%; in “in vivo” (383 mg/kg) it was 40%; in the series “in vivo” (464 mg/kg), 60%; in the series “in vivo” (562 mg/kg), 70%; in “in vivo” (681 mg/kg) it was 90%; in “in vivo” (825 mg/kg), 90%.

As for `CCCCC1C(=O)N(c2ccccc2)N(c2ccccc2)C1=O` [Piperazine salt of Phenylbutazone], the “UG: Intensity of ulceration produced in the rat stomach” value (shortened to “UG: Intensity of ulceration produced”) in the series with rat stomach [1] is “+”.

For `CCCCC1C(=O)N(c2ccccc2)N(c2ccccc2)C1=O` [LAS 11871, 1,2-diphenyl-3,5-dioxo-4-n-butylpyrazolidine-2-amino-2-thiazoline], the “ulcerogenic activity / gastric lesions” value in the series on rat stomach [2] is given as “much less active in this respect than phenylbutazone; also recorded: produces fewer gastric lesions”. For the same molecule, the treatment of polyarthritics entry in [3] (200 mg two, or three times per day) is reported as “successfully treat polyarthritics”. For the same molecule, the “treatment of humans with reumatic diseases” value in series [3] (humans) is reported as “effective in the treatment of humans with reumatic diseases”. Besides, the “Percentage inhibition Dry granuloma” value was found to be 20.00% in series [4] (50 mg/Kg/day per os), 19.90 ± 6.10% in series [4] (100 mg/Kg/day per os) and 37.60 ± 2.50% in series [4] (200 mg/Kg/day per os). The figures for the “Percentage inhibition Wet granuloma” value in series [4] (50 mg/Kg/day per os), in [4] (100 mg/Kg/day per os) and in series [4] (200 mg/Kg/day per os) were 14.40 ± 1.90%, 18.60 ± 3.70% and 20.50 ± 2.80%, respectively. Also, the “Dry granuloma ± standard error” value in series [4] (50 mg/Kg/day per os) is recorded as 61.82 ± 3.16 mg; in series [4] (100 mg/Kg/day per os), 61.95 ± 4.74 mg; in series [4] (200 mg/Kg/day per os), 48.29 ± 1.98 mg. For the same molecule, the “inhibition of granuloma tissue formation” value in series [4] (setting [8]) is “about the same degree of inhibition of granuloma tissue formation”; in [4] (setting [9]), “continued to inhibit the granuloma tissue formation”. The “No. of contortions ± standard error” value in series [5] (setting [10]) turned out to be 44.20 ± 6.03; in series [5] (setting [11]) it was 36.90 ± 6.34; in series [5] (setting [12]), 24.10 ± 3.74. Also, the “% inhibition ± standard error (contortions)” value was 54.90 ± 7.76% in [5] (setting [11]) and 70.50 ± 4.60% in series [5] (setting [12]). In series [5] (mouse, in vivo), the “analgesic activity compared with phenylbutazone” value was “more potent than phenylbutazone as an analgesic; also recorded: more active as an analgesic and anti-inflammatory agent than phenylbutazone”. Also, the “% Inhibition ± standard error (paw oedema)” value is 18.60 ± 6.54% in series [6] (setting [13]), 36.01 ± 7.06% in [6] (setting [14]), 72.40 ± 4.43% in series [6] (setting [15]) and 84.00 ± 3.97% in series [6] (setting [16]). For the same molecule, the “Volume of paw (ml) ± standard error” value was 0.7864 ± 0.0632 mL in series [6] (setting [13]), 0.6182 ± 0.0683 mL in series [6] (setting [14]), 0.2667 ± 0.0428 mL in series [6] (setting [15]) and 0.1545 ± 0.0384 mL in series [6] (setting [16]). Further, the “activity against inflammation compared with phenylbutazone” value in series [6] (Table 2, at doses of 50 mg/kg and above) is “the more active compound”; in [6] (Table 2, overall), “at least as active as phenylbutazone against inflammation”. In series [6] (general statement), the “anti-inflammatory activity compared with phenylbutazone” value is “more active as an analgesic and anti-inflammatory agent than phenylbutazone”. Also, in the series on rat stomach [1], the “UG: Intensity of ulceration produced” value is recorded as “+”. The “ulcerogenic indices ± standard error” value in the series on rat stomach [1] (50 mg/kg) was found to be 0.59 ± 0.19; with rat stomach [1] (100 mg/kg) it was 2.43 ± 0.41; in the series with rat stomach [1] (200 mg/kg), 3.65 ± 0.56.

Regarding `CCCCC1C(=O)N(c2ccccc2)N(c2ccccc2)C1=O` [Phenylbutazone, 4-n-butyl-1,2-diphenyl-3,5-pyrazolidinedione], the “most frequent serious toxic effects” value in [7] was “ulcerogenesis and fluid retention”. Further, the “Percentage inhibition Dry granuloma” value is listed as 8.50 ± 10.6% in series [4] (50 mg/Kg/day per os), 7.90 ± 6.70% in series [4] (100 mg/Kg/day per os) and 35.40 ± 5.50% in series [4] (200 mg/Kg/day per os). Also, the “Percentage inhibition Wet granuloma” value in series [4] (50 mg/Kg/day per os) was found to be 4.30 ± 4.10%; in series [4] (100 mg/Kg/day per os) it was 6.50 ± 2.90%; in [4] (200 mg/Kg/day per os) it was 22.20 ± 2.80%. Further, the “Weight of wet granuloma” value in series [4] (50 mg/Kg/day per os) is given as 434.75 ± 18.36 mg; in [4] (100 mg/Kg/day per os), 424.50 ± 13.47 mg; in series [4] (200 mg/Kg/day per os) it was 353.40 ± 13.14 mg. Besides, the “Dry granuloma ± standard error” value was determined as 83.94 ± 8.22 mg in series [4] (50 mg/Kg/day per os), 71.23 ± 5.18 mg in [4] (100 mg/Kg/day per os) and 49.96 ± 4.25 mg in [4] (200 mg/Kg/day per os). Moreover, the figures for the “inhibition of granuloma tissue formation” value in series [4] (setting [8]) and in series [4] (setting [9]) were “about the same degree of inhibition of granuloma tissue formation” and “did not”, respectively. In the series with rat (per os, doses in mg/kg, no central value printed), the “LD50 per os in the rat (only range in parentheses printed)” value is listed as 530 - 725. Besides, the “% inhibition ± standard error (contortions)” value is on record as 27.70 ± 7.97% in series [5] (setting [10]) and 42.10 ± 8.20% in [5] (setting [11]). Besides, the “No. of contortions ± standard error” value in series [5] (setting [10]) is recorded as 59.00 ± 6.51; in series [5] (setting [11]) it was 47.30 ± 6.70; in series [5] (setting [12]), 42.30 ± 6.75. The “Volume of paw (ml) ± standard error” value amounted to 0.6545 ± 0.0545 mL in [6] (setting [13]), 0.6886 ± 0.0699 mL in [6] (setting [14]), 0.3139 ± 0.0224 mL in series [6] (setting [15]) and 0.2458 ± 0.0454 mL in series [6] (setting [16]). Further, the “% Inhibition ± standard error (paw oedema)” value stood at 28.70 ± 7.24% in [6] (setting [14]), 67.50 ± 2.30% in series [6] (setting [15]) and 74.60 ± 4.70% in series [6] (setting [16]). The “UG: Intensity of ulceration produced” value with rat stomach [1] was “++”. The “ulcerogenic indices ± standard error” value in the series on rat stomach [1] (50 mg/kg) was 0.73 ± 0.21; with rat stomach [1] (100 mg/kg), 4.33 ± 0.47; in the series on rat stomach [1] (200 mg/kg), 5.00 ± 0.56.

For `CCCCC1C(=O)N(c2ccccc2)N(c2ccccc2)C1=O` [LAS 6671, 1,2-diphenyl-3,5-dioxo-4-n-butylpyrazolidine-2-amino-4-methyl-pyridine], in the series on rat stomach [1], the “UG: Intensity of ulceration produced” value is “+”.
